Source: ChEMBL document CHEMBL1131929, “New lead compounds for brassinosteroid biosynthesis inhibitors” (1999)

Columns and labels:
Format in all cases: functional
[1] = test system: Lepidium sativum; assay: Inhibitory activity on cress growth at a concentration of 0.1 uM
[2] = test system: Lepidium sativum; assay: Inhibitory activity on cress growth at a concentration of 5 uM
[3] = test system: Lepidium sativum; assay: Inhibitory activity on cress growth at a concentration of 1 uM
[4] = test system: Oryza sativa; assay: Compound was tested for its activity in rice stem elongation test at a concentration of 1 uM Stem length was measured after 7 days of transplantation
[5] = test system: Lepidium sativum; assay: Inhibitory activity on cress growth at a concentration of 0.05 uM
[6] = test system: Lepidium sativum; assay: Inhibitory activity on cress growth at a concentration of 0.5 uM

SMILES | Hypocotyl length [1] [cm] | Hypocotyl length [2] [cm] | Hypocotyl length [3] [cm] | Rice stem length [4] [cm] | Hypocotyl length [5] [cm] | Hypocotyl length [6] [cm]
CC(O)(c1ccccc1)C(Cc1ccc(Cl)cc1)n1cncn1 (centres undefined) | ~2.25 | 0.5 | 0.75 | ~2.7 | ~2 | 1.25
COc1cccc(/C=C(\C(O)C(C)(C)C)n2cncn2)c1 (centres undefined) | – | – | – | 2.7 | – | –
OC(c1ccccc1)C(Cc1ccc(Cl)cc1)n1cncn1 (centres undefined) | – | – | – | ~2.6 | – | –
CC(C)(C)C(O)/C(=C\c1ccc(Cl)cc1Cl)n1cncn1 (centres undefined) | – | – | – | 1.2 | – | –
CC(C)(C)C(O)/C(=C\c1ccc(Cl)cc1)n1cncn1 (centres undefined) | ~0.52 | 0.5 | ~0.51 | 1.4 | 1 | ~0.51
CC(C)(C)C(O)C(CCc1ccccc1)n1cncn1 (centres undefined) | – | – | – | ~2 | – | –
CCCCOc1ccc(/C=C(\C(O)C(C)(C)C)n2cncn2)cc1 (centres undefined) | – | – | – | 2.4 | – | –
OC(/C(=C\c1ccc(Cl)cc1)n1cncn1)c1ccccc1 (centres undefined) | 1.75 | – | ~0.75 | 2.7 | ~2 | 1
CC(C)(C)C(O)C(Cc1ccc(Cl)cc1)n1cncn1 (centres undefined) | – | – | – | 1 | – | –
CC(C)(C)C(O)C(CCCOc1ccccc1)n1cncn1 (centres undefined) | – | – | – | 2.1 | – | –
